Measurements taken from paper PMC3888668 (Biological psychiatry, 2008).
Structures can show the parent of a compound that is named as a salt. Where two headings read alike, the source gives them in different places. Marks after values point to notes of the source that are not given here.

Assays:
[1] = test system: high-ethanol–consuming rats; conditions: .3–1 mg/kg, IP; 30 min and 24 hours of ethanol access; cited from earlier work
[2] = test system: low-ethanol–consuming rats; assay: Continuous-access 10% ethanol two-bottle-choice drinking paradigm; conditions: for Preference for Ethanol: continuous access to 10% ethanol, mean ± SEM, n = 12
[3] = test system: high-ethanol–consuming rats; conditions: for Preference for Ethanol: intermittent access to 20% ethanol, 24 hours, mean ± SEM, n = 12; for Ethanol consumption compared with vehicle: after 24 hours of ethanol access, intermittent access 20% ethanol; for Ethanol intake after 30 min: after 30 min of ethanol access, Figures 2A-2C in Supplement 1
DOP-R [4] = biological target: T1, DOP-R (Rattus norvegicus, UniProt P33533); type: biochemical; conditions: striatal membranes
[5] = Preliminary pharmacokinetics in plasma; type: in vivo; conditions: IP, rat plasma
rats [6] = assay: Morphine-mediated analgesia; type: in vivo, rat; conditions: Figures 1A and 1B in Supplement 1
rats [7] = assay: Conditioned place preference; type: in vivo, rat; conditions: Figure 1C in Supplement 1
rats [8] = assay: Anxiety; type: in vivo, rat; conditions: Figure 1D in Supplement 1
[9] = biological target: δ opioid peptide receptor (DOP-R); conditions: cited from earlier work
[10] = biological target: μ opioid peptide receptor (MOP-R); conditions: cited from earlier work
[11] = test system: high-ethanol–consuming rats; assay: Daily administration for 28 days, intermittent-access 20% ethanol, naive rats
DOP-R [12] = biological target: T1, DOP-R; type: biochemical; conditions: [35S]GTPγS binding

T1 sequence (P33533 whole entry): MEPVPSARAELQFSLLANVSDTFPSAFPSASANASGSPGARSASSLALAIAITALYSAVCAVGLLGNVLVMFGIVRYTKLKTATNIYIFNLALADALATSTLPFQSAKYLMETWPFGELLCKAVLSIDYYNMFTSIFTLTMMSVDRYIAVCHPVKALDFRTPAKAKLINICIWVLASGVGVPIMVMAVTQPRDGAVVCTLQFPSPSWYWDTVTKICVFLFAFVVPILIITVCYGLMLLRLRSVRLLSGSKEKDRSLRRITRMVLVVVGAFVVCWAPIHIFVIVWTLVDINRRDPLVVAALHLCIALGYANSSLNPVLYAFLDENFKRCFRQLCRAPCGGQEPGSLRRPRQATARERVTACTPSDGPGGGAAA

Structure (SMILES): O=C1CC[C@@]2(O)[C@H]3Cc4ccc(O)c5c4[C@@]2(CCN3CC2CC2)[C@H]1O5 [Naltrexone]
- Ethanol intake at lower doses [1]: reduce ethanol intake after 30 min but not after 24 hours
- Preference for Ethanol ([2]; 5 mg/kg IP, 24 hours): 32.7 ± 5.9%
- Preference for Ethanol ([2]; 15 mg/kg IP, 24 hours): 33.8 ± 7.3%
- Preference for Ethanol ([2]; 30 mg/kg IP, 24 hours): 37.0 ± 4.9%
- Ethanol consumption compared with vehicle ([2]; all doses (5, 15, 30 mg/kg IP), after 24 hours of access, continuous access 10% ethanol): did not produce any significant effect on ethanol consumption
- Ethanol consumption after a limited access period ([2]; limited access period 1 hour, continuous access 10% ethanol, data not shown): a reduction in ethanol consumption was observed
- Preference for Ethanol ([3]; 5 mg/kg IP): 55.2 ± 7.1%
- Preference for Ethanol ([3]; 15 mg/kg IP): 54.1 ± 6.4%
- Preference for Ethanol ([3]; 30 mg/kg IP): 54.4 ± 4.7%
- Ethanol consumption compared with vehicle ([3]; 15 and 30 mg/kg IP): significantly reduce ethanol consumption
- Ethanol intake after 30 min [3]: selectively reduced ethanol intake

Structure (SMILES): Oc1ccc2c3c1O[C@H]1c4[nH]c5ccccc5c4C[C@@]4(O)[C@@H](C2)N(CC2CC2)CC[C@]314 [Naltrindole, naltrindole]
- IC50 (DOP-R [4]; Mean (± SEM) IC50 for Striatal DOP-R Inhibition, DPDPE Inhibition, DPDPE (10 μmol/L)-stimulated [35S]GTPγS binding): 0.4 ± 0.02 nM
- IC50 (DOP-R [4]; Mean (± SEM) IC50 for Striatal DOP-R Inhibition, SNC80 Inhibition, SNC80 (10 μmol/L)-stimulated [35S]GTPγS binding): 31 ± 3.9 nM
- IC50 (DOP-R [4]; Mean (± SEM) IC50 for Striatal DOP-R Inhibition, TAN67 Inhibition, TAN67 (10 μmol/L)-stimulated [35S]GTPγS binding): > 10000 nM
- Preference for Ethanol ([2]; 1 mg/kg IP, 24 hours): 38.2 ± 3.7%
- Preference for Ethanol ([2]; 5 mg/kg IP, 24 hours): 31.7 ± 4.0%
- Preference for Ethanol ([2]; 10 mg/kg IP, 24 hours): 31.0 ± 3.3%
- Ethanol consumption compared with vehicle ([2]; 5 and 10 mg/kg IP, 24 hours, continuous access 10% ethanol): significantly reduce ethanol consumption
- Preference for Ethanol ([3]; 1 mg/kg IP): 53.4 ± 7.9%
- Preference for Ethanol ([3]; 5 mg/kg IP): 55.1 ± 8.3%
- Preference for Ethanol ([3]; 10 mg/kg IP): 48.8 ± 6.1%
- Ethanol consumption compared with vehicle ([3]; all doses tested, IP): did not significantly affect ethanol consumption

Structure (SMILES): Oc1ccc2c3c1O[C@H]1c4ncc(-c5ccc(Cl)cc5)cc4C[C@@]4(O)[C@@H](C2)N(CC2CC2)CC[C@]314 [SoRI-9409, 5’-(4-Chlorophenyl)-17-(cyclopropylmethyl)-6,7-didehydro-3,14-dihydroxy-4,5-α-epoxypyrido-[2’,3’:6,7]morphinan]
- IC50 (DOP-R [4]; read-out: Mean (± SEM) IC50 for Striatal DOP-R Inhibition, DPDPE Inhibition, DPDPE (10 μmol/L)-stimulated [35S]GTPγS binding): 3.5 ± 0.3 nM
- IC50 (DOP-R [4]; read-out: Mean (± SEM) IC50 for Striatal DOP-R Inhibition, SNC80 Inhibition, SNC80 (10 μmol/L)-stimulated [35S]GTPγS binding): 31 ± 3.2 nM
- IC50 (DOP-R [4]; read-out: Mean (± SEM) IC50 for Striatal DOP-R Inhibition, TAN67 Inhibition, TAN67 (10 μmol/L)-stimulated [35S]GTPγS binding): 56 ± 8.2 nM
- Detection in plasma after dosing [5]: still detectable in plasma at 12 hours after dosing
- Elimination half-life ([5]; preliminary investigation): 2.5 h
- Induction of analgesia and hyperalgesia (rats [6]): did not reduce morphine-mediated analgesia or induce analgesia and hyperalgesia
- Conditioned place preference or aversion (rats [7]): does not produce conditioned place preference or aversion
- Anxiolytic or anxiogenic effect (rats [8]): is not anxiolytic or anxiogenic
- Ki ([9]; read-out: Ki, binding affinity at the DOP-R): 2.2 ± 0.2 nM
- higher binding affinity at the DOP-R relative to naltrexone ([9]; versus naltrexone structure): approximately 20 fold
- Ki ([10]; read-out: Ki, binding affinity for the MOP-R): 51 ± 8 nM
- reduced binding affinity for the MOP-R relative to naltrexone ([10]; versus naltrexone structure): approximately 20 fold
- Ethanol consumption compared with vehicle ([2]; 5 mg/kg IP, 24 hours, continuous access 10% ethanol): but not the 5-mg/kg dose
- Preference for Ethanol ([2]; 5 mg/kg IP, 24 hours): 39.5 ± 8.6%
- Preference for Ethanol ([2]; 15 mg/kg IP, 24 hours): 32.4 ± 7.3 ^b %
- Preference for Ethanol ([2]; 30 mg/kg IP, 24 hours): 24.0 ± 6.2 ^b %
- Ethanol consumption compared with vehicle ([2]; 15 and 30 mg/kg IP, 24 hours, continuous access 10% ethanol): significantly reduce ethanol consumption
- Preference for Ethanol ([3]; 5 mg/kg IP): 49.9 ± 7.3%
- Preference for Ethanol ([3]; 15 mg/kg IP): 42.1 ± 7.4 ^a %
- Preference for Ethanol ([3]; 30 mg/kg IP): 32.8 ± 4.9 ^a %
- Ethanol intake after 30 min [3]: selectively reduced ethanol intake
- Ethanol consumption compared with vehicle ([3]; all doses tested, IP): significantly reduced ethanol consumption at all doses
- Effectiveness at reducing ethanol consumption compared with naltrexone or naltrindole ([3]; high-ethanol–consuming animals): threefold more effective
- Escalation and maintenance of ethanol intake compared with vehicle ([11]; 5 mg/kg IP daily for 28 days (12 ethanol exposures), n = 16): significantly reduced the escalation and maintenance of ethanol intake
- Reduction of ethanol intake compared with saline-treated rats ([11]; 5 mg/kg IP daily, for up to 28 days): > 50%

Structure (SMILES): CN1CCC2(c3cccc(O)c3)Cc3nc4ccccc4cc3CC2C1 (stereo not drawn) [TAN67, (2-methyl-4a (α)-(3-hydroxyphenyl)-1,2,3,4,4a,5,12, 12a(α)-octahydro-quinolino[2,3,3,g]isoquinoline) dihydrobromide]
- EC50 (DOP-R [12]; read-out: Mean (± SEM) EC50 for DOP-R Stimulation, Spinal Cord, spinal cord membranes): 3700 ± 2200 nM
- EC50 (DOP-R [12]; read-out: Mean (± SEM) EC50 for DOP-R Stimulation, Striatum, striatum membranes): 372 ± 20 nM
